Measured values: patent US20240376085A1 (Janssen Pharmaceutica NV, priority 2021, published 2024)

Key:
[1] = system: IL-17A-induced G-CSF production in human normal keratinocyte (NHK); test: NHK assay: IL-17A-induced G-CSF production in normal human keratinocytes; assay type: cell-based; settings: Homo sapiens, Keratinocyte, 24 h, IL-17A 5 ng/mL, average if tested more than once
In short: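 Stimulus rhIL-17A 5 ng/mL final, premixed 1 h rt with compound; adult NHK, 5% FBS, 0.2% DMSO. Viability by CellTiter-Glo vs DMSO.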

IL-17A : IL-17RA binding = biological target: T1, IL-17A : IL-17RA binding (Homo sapiens, UniProt Q16552, K93Q); test: IL-17A(FLAG-tagged):IL-17RA(His-tagged) binding disruption Eu-HTRF assay, Protocol 1; settings: FLAG-IL-17A 2.5 nM at 2x final concentration; average if tested more than once
T1 construct: Name: IL-17A-Flag
In short: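 IC50 came from a one-site competition fit of the acceptor/donor (665/620 nm) HTRF ratio. His-tagged IL-17RA, Eu-anti-FLAG and D2-anti-His were added after a 1 h rt compound preincubation with FLAG-tagged IL-17A dimer in PBS/0.01% Triton X-100, followed by 2 h at rt before reading.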

T1 sequence (Q16552 with tags, fused parts or gaps K93Q): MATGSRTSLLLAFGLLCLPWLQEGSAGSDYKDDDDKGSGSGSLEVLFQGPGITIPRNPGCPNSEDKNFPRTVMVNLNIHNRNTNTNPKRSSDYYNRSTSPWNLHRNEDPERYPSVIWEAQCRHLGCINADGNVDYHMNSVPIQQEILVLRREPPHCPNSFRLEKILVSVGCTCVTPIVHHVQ

| Structure (SMILES) | IC50 [1] [nM] | IC50 (IL-17A : IL-17RA binding) [nM] |
| --- | --- | --- |
| C[C@@H](NC(=O)CCC(F)(F)F)c1ccc2[nH]c([C@@H](NC(=O)c3cnn4c3CCC4)C3CCC(F)(F)CC3)nc2c1 [Example 212, N—((S)-(4,4-Difluorocyclohexyl)(5-((R)-1-(4,4,4-trifluorobutanamido)ethyl)-1H-benzo[d]imidazol-2-yl)methyl)-5,6-dihydro-4H-pyrrolo[1,2-b]pyrazole-3-carboxamide] | > 100 | > 100 |
| CC(C)n1cccc1C(=O)N[C@H](c1nc2cc([C@@H](C)NC(=O)CCC(F)(F)F)ccc2[nH]1)C1CCC(F)(F)CC1 [Example 213, N—((S)-(4,4-Difluorocyclohexyl)(5-((R)-1-(4,4,4-trifluorobutanamido)ethyl)-1H-benzo[d]imidazol-2-yl)methyl)-1-isopropyl-1H-pyrrole-2-carboxamide] | < 50 | < 50 |
| C[C@@H](NC(=O)CCC(F)(F)F)c1ccc2[nH]c([C@@H](NC(=O)c3conc3CCC(F)(F)F)C3CCC(F)(F)CC3)nc2c1 [Example 214, N—((S)-(4,4-Difluorocyclohexyl)(5-((R)-1-(4,4,4-trifluorobutanamido)ethyl)-1H-benzo[d]imidazol-2-yl)methyl)-3-(3,3,3-trifluoropropyl)isoxazole-4-carboxamide] | < 50 | 50 to 100 |
| C[C@@H](NC(=O)CCC(F)(F)F)c1ccc2[nH]c([C@@H](NC(=O)c3cc(CCC(F)(F)F)no3)C3CCC(F)(F)CC3)nc2c1 [Example 215, N—((S)-(4,4-Difluorocyclohexyl)(5-((R)-1-(4,4,4-trifluorobutanamido)ethyl)-1H-benzo[d]imidazol-2-yl)methyl)-3-(3,3,3-trifluoropropyl)isoxazole-5-carboxamide] | > 100 | > 100 |
| C[C@@H](NC(=O)CCC(F)(F)F)c1ccc2[nH]c([C@@H](NC(=O)c3cncn3CCC(F)(F)F)C3CCC(F)(F)CC3)nc2c1 [Example 216, N—((S)-(4,4-Difluorocyclohexyl)(5-((R)-1-(4,4,4-trifluorobutanamido)ethyl)-1H-benzo[d]imidazol-2-yl)methyl)-1-(3,3,3-trifluoropropyl)-1H-imidazole-5-carboxamide] | > 100 | > 100 |
| C[C@@H](NC(=O)CCC(F)(F)F)c1ccc2[nH]c([C@@H](NC(=O)c3cc(CCC(F)(F)F)on3)C3CCC(F)(F)CC3)nc2c1 [Example 217, N—((S)-(4,4-Difluorocyclohexyl)(5-((R)-1-(4,4,4-trifluorobutanamido)ethyl)-1H-benzo[d]imidazol-2-yl)methyl)-5-(3,3,3-trifluoropropyl)isoxazole-3-carboxamide] | > 100 | > 100 |
| C[C@@H](NC(=O)CCC(F)(F)F)c1ccc2[nH]c([C@@H](NC(=O)c3ncnn3CCC(F)(F)F)C3CCC(F)(F)CC3)nc2c1 [Example 220, N—((S)-(4,4-Difluorocyclohexyl)(5-((R)-1-(4,4,4-trifluorobutanamido)ethyl)-1H-benzo[d]imidazol-2-yl)methyl)-1-(3,3,3-trifluoropropyl)-1H-1,2,4-triazole-5-carboxamide] | > 100 | 50 to 100 |
| C[C@@H](NC(=O)CCC(F)(F)F)c1ccc2[nH]c([C@@H](NC(=O)c3ccc(CCC(F)(F)F)s3)C3CCC(F)(F)CC3)nc2c1 [Example 221, N—((S)-(4,4-Difluorocyclohexyl)(5-((R)-1-(4,4,4-trifluorobutanamido)ethyl)-1H-benzo[d]imidazol-2-yl)methyl)-5-(3,3,3-trifluoropropyl)thiophene-2-carboxamide] | > 100 | > 100 |
| C[C@@H](NC(=O)CCC(F)(F)F)c1ccc2[nH]c([C@@H](NC(=O)c3cnc(CCC(F)(F)F)s3)C3CCC(F)(F)CC3)nc2c1 [Example 222, N—((S)-(4,4-Difluorocyclohexyl)(5-((R)-1-(4,4,4-trifluorobutanamido)ethyl)-1H-benzo[d]imidazol-2-yl)methyl)-2-(3,3,3-trifluoropropyl)thiazole-5-carboxamide] | > 100 | > 100 |
| C[C@@H](NC(=O)CCC(F)(F)F)c1ccc2[nH]c([C@@H](NC(=O)c3csc(CCC(F)(F)F)n3)C3CCC(F)(F)CC3)nc2c1 [Example 224, N—((S)-(4,4-Difluorocyclohexyl)(5-((R)-1-(4,4,4-trifluorobutanamido)ethyl)-1H-benzo[d]imidazol-2-yl)methyl)-2-(3,3,3-trifluoropropyl)thiazole-4-carboxamide] | > 100 | > 100 |
| C[C@@H](NC(=O)CCC(F)(F)F)c1ccc2[nH]c([C@@H](NC(=O)c3coc(CCC(F)(F)F)n3)C3CCC(F)(F)CC3)nc2c1 [Example 225, N—((S)-(4,4-Difluorocyclohexyl)(5-((R)-1-(4,4,4-trifluorobutanamido)ethyl)-1H-benzo[d]imidazol-2-yl)methyl)-2-(3,3,3-trifluoropropyl)oxazole-4-carboxamide] | > 100 | > 100 |
| C[C@@H](NC(=O)CCC(F)(F)F)c1ccc2[nH]c([C@@H](NC(=O)c3cn(CCC(F)(F)F)cn3)C3CCC(F)(F)CC3)nc2c1 [Example 226, N—((S)-(4,4-Difluorocyclohexyl)(5-((R)-1-(4,4,4-trifluorobutanamido)ethyl)-1H-benzo[d]imidazol-2-yl)methyl)-1-(3,3,3-trifluoropropyl)-1H-imidazole-4-carboxamide] | > 100 | > 100 |
| C[C@@H](NC(=O)CCC(F)(F)F)c1ccc2[nH]c([C@@H](NC(=O)c3nccn3CCC(F)(F)F)C3CCC(F)(F)CC3)nc2c1 [Example 227, N—((S)-(4,4-Difluorocyclohexyl)(5-((R)-1-(4,4,4-trifluorobutanamido)ethyl)-1H-benzo[d]imidazol-2-yl)methyl)-1-(3,3,3-trifluoropropyl)-1H-imidazole-2-carboxamide] | > 100 | > 100 |
| C[C@@H](NC(=O)CCC(F)(F)F)c1ccc2[nH]c([C@@H](NC(=O)c3ncn(CCC(F)(F)F)n3)C3CCC(F)(F)CC3)nc2c1 [Example 228, N—((S)-(4,4-Difluorocyclohexyl)(5-((R)-1-(4,4,4-trifluorobutanamido)ethyl)-1H-benzo[d]imidazol-2-yl)methyl)-1-(3,3,3-trifluoropropyl)-1H-1,2,4-triazole-3-carboxamide] | > 100 | > 100 |
| Cc1nonc1C(=O)N[C@@H](CC(C)(C)C(F)F)c1nc2ccc([C@H](NC(=O)CC3CC(F)(F)C3)C3CC3)cc2[nH]1 [Example 233, N—((S)-1-(6-((R)-Cyclopropyl(2-(3,3-difluorocyclobutyl)acetamido)methyl)-1H-benzo[d]imidazol-2-yl)-4,4-difluoro-3,3-dimethylbutyl)-4-methyl-1,2,5-oxadiazole-3-carboxamide] | > 100 | < 50 |
| CC(C)n1nccc1C(=O)N[C@@H](CC(C)(C)C(F)F)c1nc2ccc([C@H](NC(=O)CC3CC(F)(F)C3)C3CC3)cc2[nH]1 [Example 234, N—((S)-1-(6-((R)-Cyclopropyl(2-(3,3-difluorocyclobutyl)acetamido)methyl)-1H-benzo[d]imidazol-2-yl)-4,4-difluoro-3,3-dimethylbutyl)-1-isopropyl-1H-pyrazole-5-carboxamide] | 50 to 100 | 50 to 100 |
| Cc1nonc1C(=O)N[C@@H](C[C@H]1CCC(F)(F)C1)c1nc2ccc([C@H](NC(=O)CC3CC(F)(F)C3)C3CC3)cc2[nH]1 [Example 235, N—((S)-1-(6-((R)-Cyclopropyl(2-(3,3-difluorocyclobutyl)acetamido)methyl)-1H-benzo[d]imidazol-2-yl)-2-((R)-3,3-difluorocyclopentyl)ethyl)-4-methyl-1,2,5-oxadiazole-3-carboxamide] | > 100 | > 100 |
| CC(C)n1nccc1C(=O)N[C@@H](C[C@H]1CCC(F)(F)C1)c1nc2ccc([C@H](NC(=O)CC3CC(F)(F)C3)C3CC3)cc2[nH]1 [Example 236, N—((S)-1-(6-((R)-Cyclopropyl(2-(3,3-difluorocyclobutyl)acetamido)methyl)-1H-benzo[d]imidazol-2-yl)-2-((R)-3,3-difluorocyclopentyl)ethyl)-1-isopropyl-1H-pyrazole-5-carboxamide] | > 100 | > 100 |
| Cc1nonc1C(=O)N[C@H](c1nc2ccc([C@H](NC(=O)CC3CC(F)(F)C3)C3CC3)cc2[nH]1)[C@@H]1C[C@@H]2[C@H](C1)C2(F)F [Example 237, N—((S)-(6-((R)-Cyclopropyl(2-(3,3-difluorocyclobutyl)acetamido)methyl)-1H-benzo[d]imidazol-2-yl)((1R,3s,5S)-6,6-difluorobicyclo[3.1.0]hexan-3-yl)methyl)-4-methyl-1,2,5-oxadiazole-3-carboxamide] | 50 to 100 | < 50 |
| CC(C)n1nccc1C(=O)N[C@H](c1nc2ccc([C@H](NC(=O)CC3CC(F)(F)C3)C3CC3)cc2[nH]1)[C@@H]1C[C@@H]2[C@H](C1)C2(F)F [Example 238, N—((S)-(6-((R)-Cyclopropyl(2-(3,3-difluorocyclobutyl)acetamido)methyl)-1H-benzo[d]imidazol-2-yl)((1R,3s,5S)-6,6-difluorobicyclo[3.1.0]hexan-3-yl)methyl)-1-isopropyl-1H-pyrazole-5-carboxamide] | < 50 | < 50 |
